*1 amine or outer side, *2 acyl side, *3 side chain or, on linkers, in order; H or OH if unused. Where a SMILES comes first, the peptide text is derived from it. Bridges are numbered along the chain shown (N, C = ends). Roman numbers before positions name the chains, in order. [ ]: non-standard residue; d: D form. Actinocin(9to1) = Cc1c2oc3c(C)ccc(C(=O)[*:1])c3nc-2c(C(=O)[*:2])c(N)c1=O; NMeV = CN[C@H](C(=O)O)C(C)C; Sar = CNCC(=O)O
Assays:
[1] = tested on: KB: epidermal carcinoma of the oral cavity; assay: In vivo antitumor activity (hollow fiber assay), KB; conditions: for % Inhibition (cell line) KB: location s.c., i.p. doses (mg/kg): sootepenseone 4 × 10, Actinomycin D 4 × 0.1, Adriamycin 4 × 4, Bleomycin 4 × 8, Vinblastin 4 × 0.65
Protocol: (§1) The hollow-fiber test was carried out as described by Melinda G. Hollingshead et al. in Life Sciences, Vol. 57, No. 2, pp.131-141, 1995.

[2] = tested on: mice; assay: Toxicity (LD50, i.p., mice)
[3] = tested on: MCF-7: human breast cancer; assay: In vivo antitumor activity (hollow fiber assay), MCF-7; conditions: location s.c.; i.p. doses (mg/kg): sootepenseone 4 × 10, Actinomycin D 4 × 0.1, Adriamycin 4 × 4, Bleomycin 4 × 8, Vinblastin 4 × 0.65; negative values = increase in cell growth
Protocol: as §1

[4] = in vivo; conditions: mouse, ip
[5] = tested on: KB: epidermal carcinoma of the oral cavity; assay: XTT proliferation/cytotoxicity test, KB; assay type: cell-based; conditions: all tested tumor cell lines (KB, L1210, SK-OV-3, LNCAP)
Protocol: The XTT-assay was carried out as described by D. A. Scudiero et al., Cancer Res. 48 (Sep. 1, 1988), pp. 4827-4833. The results of this procedure are expressed as that dose which inhibits growth by 50% as compared to control growth after 45 hours following application of the substance. The dose value as obtained is referred to as ED 50 and activity is indicated for ED 50 levels of ≦30 μg/ml. […] The activities of sootepenseone (1) obtained in Example 1 are reported below in Table 2.

Molecule	% Inhibition (cell line) KB [1] [%]	LD50 (mg/kg i.p. mice) [2]	% Inhibition (cell line) MCF-7 [3] [%]	LD50 [4] [mg/kg]	anticancer activity against all tested tumor cell lines [5]	activity in the hollow-fiber test compared with the standard compounds ([1]; in words, KB and MCF-7)	less toxic than Adriamycin ([2]; from LD50 i.p. mice) [%]	less toxic than Bleomycin ([2]; from LD50 i.p. mice) [%]	times less toxic than Actinomycin D ([2]; from LD50 i.p. mice)	times less toxic than Vinblastin ([2]; from LD50 i.p. mice)
Cc1c2oc3c(C)ccc(C(=O)N[C@@H]4C(=O)N[C@H](C(C)C)C(=O)N5CCC[C@H]5C(=O)N(C)CC(=O)N(C)[C@@H](C(C)C)C(=O)O[C@@H]4C)c3nc-2c(C(=O)N[C@@H]2C(=O)N[C@H](C(C)C)C(=O)N3CCC[C@H]3C(=O)N(C)CC(=O)N(C)[C@@H](C(C)C)C(=O)O[C@@H]2C)c(N)c1=O [Actinomycin D] (I: T[dV]P[Sar][NMeV] / II: T[dV]P[Sar][NMeV]; ester I:1-I:C, II:1-II:C; linker I:N-II:N via Actinocin(9to1))	40	ca. 1 mg/kg								
COc1cccc2c1C(=O)c1c(O)c3c(c(O)c1C2=O)C[C@@](O)(C(=O)CO)C[C@@H]3O[C@H]1C[C@H](N)[C@H](O)[C@H](C)O1 [Adriamycin]	52		41	~40						
CC(C)=CC[C@]12OC(C)(C)C3CC(C=C4C(=O)c5c(O)cc6c(c5OC431)C(C)(C)C(C)O6)C2=O (stereo partly drawn) [Sootepenseone (1; D-25637), sootepenseone]	49		41	> 100	significant anticancer activity	more active	60	20	at least 100 times	about 16 times
CC[C@]1(O)C[C@@H]2CN(CCc3c([nH]c4ccccc34)[C@@](C(=O)OC)(c3cc4c(cc3OC)N(C)[C@H]3[C@@](O)(C(=O)OC)[C@H](OC(C)=O)[C@]5(CC)C=CCN6CC[C@]43[C@@H]65)C2)C1 [Vinblastin]	13	ca. 6 mg/kg								
Bleomycin	53	ca. 80 mg/kg								
